According to patent US20120101132A1, “New Substituted Oxindole Derivative” (priority 2008, published 2012):

Molecular target: T1, recombinant human GSK3β (Homo sapiens, UniProt P49841)
T1 construct: purchased Dundee University, UK
Assay: GSK3β Scintillation Proximity Assay (ATP competition)
Format: biochemical
Conditions: ATP 1 μM; Km of ATP for GSK3β 20 μM; peptide substrate 1 μM
Description: Determination of ATP Competition in Scintillation Proximity GSK3β Assay.
GSK3β Scintillation Proximity Assay.
The competition experiments were carried out in duplicate with 10 different concentrations of the inhibitors in clear-bottom microtiter plates (Wallac, Finland). A biotinylated peptide substrate, Biotin-Ala-Ala-Glu-Glu-Leu-Asp-Ser-Arg-Ala-Gly-Ser(PO3H2)-Pro-Gln-Leu (AstraZeneca, Lund), was added at a final concentration of 1 μM in an assay buffer containing 1 mU recombinant human GSK3β (Dundee University, UK), 12 mM morpholinepropanesulfonic acid (MOPS), pH 7.0, 0.3 mM EDTA, 0.01% β-mercaptorethanol, 0.004% Brij 35 (a […] detergent), 0.5% glycerol and 0.5 μg BSA/25 μl. The reaction was initiated by the addition of 0.04 μCi [γ-^33P]ATP (Amersham, UK) and unlabelled ATP at a final concentration of 1 μM and assay volume of 25 μl. After incubation for 20 minutes at room temperature, each reaction was terminated by the addition of 25 μl stop solution containing 5 mM EDTA, 50 μM ATP, 0.1% Triton X-100 and 0.25 mg streptavidin coated Scintillation Proximity Assay (SPA) beads (Amersham, UK). After 6 hours the radioactivity was determined in a liquid scintillation counter (1450 MicroBeta Trilux, Wallac). The inhibition curves were analysed by non-linear regression using GraphPad Prism, USA. […]

T1 sequence (P49841 whole entry): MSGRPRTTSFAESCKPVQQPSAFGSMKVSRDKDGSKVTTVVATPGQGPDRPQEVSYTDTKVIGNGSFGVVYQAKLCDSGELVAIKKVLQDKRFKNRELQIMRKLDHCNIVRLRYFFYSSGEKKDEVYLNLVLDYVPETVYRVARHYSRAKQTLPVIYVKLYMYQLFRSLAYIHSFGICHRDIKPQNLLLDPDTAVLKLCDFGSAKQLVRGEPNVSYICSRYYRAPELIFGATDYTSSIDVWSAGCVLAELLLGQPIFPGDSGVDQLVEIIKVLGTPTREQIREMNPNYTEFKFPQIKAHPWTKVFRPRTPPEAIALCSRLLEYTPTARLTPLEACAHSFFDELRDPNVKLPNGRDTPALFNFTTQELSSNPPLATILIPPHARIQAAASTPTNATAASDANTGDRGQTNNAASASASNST

Compound: N#Cc1ccc2[nH]c(O)c(-c3ccc(C(=O)O)cn3)c2c1 [compound of formula (I), 6-(5-cyano-2-hydroxy-1H-indol-3-yl)pyridine-3-carboxylic acid]
- Ki: 0.032 µM
